The experiment has as its system HIV-1 LAI. In words: Single-round infectious luciferase reporter virus (HIV-1 LAI envelope) infection of MT2 cells. The class given is cell-based. Particulars: Human immunodeficiency virus 1, MT2, 72 h. From the text: • Virus Production— • Human embryonic Kidney cell line, 293T (HEK 293T), was propagated in Dulbecco's Modified Eagle Medium (Invitrogen, Carlsbad, Calif.) containing 10% fetal Bovine serum (FBS, Sigma, St. Louis, Mo.). The human T-cell leukemia cell MT2 (AIDS Research and Reference Reagent Program, Cat. 237) was propagated in RPMI 1640 (Invitrogen, Carlsbad, Calif.) containing 10% fetal bovine serum (FBS, Hyclone, Logan, Utah) • Virus Infection— • Single-round infectious reporter virus was produced by co-transfecting HEK 293T cells with plasmide expressing the HIV-1 LAI envelope along with a plasmid containing an HIV-1 LAI proviral cDNA with the envelope gene replaced by a firefly luciferase reporter gene (Chen et al, Ref 41). Transfections were performed using lipofectAMINE PLUS reagent as described by the manufacturer (Invitrogen, Carlsbad, Calif.).
• 1. MT2 cells were plated in black, 384 well plates at a cell density of 5×10^3 cells per well in 25 μl RPMI 1640 containing 10% FBS. • 2. Compound (diluted in dimethylsulfoxide and growth medium) was added to cells at 12.5 μl/well, so that the final assay concentration would be ≦50 nM. • 3. 12.5 μl of single-round infectious reporter virus in Dulbecco's Modified Eagle Medium was added to the plated cells and compound at an approximate multiplicity of infection (MOI) of 0.01, resulting in a final volume of 50 μl per well. • 4. Virus-infected cells were incubated at 37 degrees Celsius, in a CO2 incubator, and harvested 72 h after infection. • 5. Viral infection was monitored by measuring luciferase expression in the infected cells using a luciferase reporter gene assay kit (Steady-Glo, Promega, Madison, Wis.) as described by the manufacturer. Luciferase activity was then quantified by measuring luminescence using an EnVision Multilabel Plate Readers (PerkinElmer, Waltham, Mass.). • 6. The percent inhibition for each compound was calculated by quantifying the level of luciferase expression in cells infected in the presence of each compound as a percentage of that observed for cells infected in the absence of compound and subtracting such a determined value from 100. • 7. An EC50 provides a method for comparing the antiviral potency of the compounds of this disclosure. The effective concentration for fifty percent inhibition (EC50) was calculated with the Microsoft Excel Xlfit curve fitting software. For each compound, curves were generated from percent inhibition calculated at 10 different concentrations by using a four parameter logistic model (model 205). Table 1 is the key for the data in Table 2.
Background: A reporter such as luciferase makes a cellular process visible.

The mark [1] stands for this setting: read-out: EC50 Group from Table 1.

pEC50: −log10 of the molar value. Like-named read-outs stand apart in the source and are kept apart here.

With `O=C(C(=O)N1CCC2(CCN(c3nnnn3-c3ccccc3)C2)C1)c1c[nH]c2c(-n3ccnn3)ncc(F)c12` (centres unmarked) [Compound 1001, 1-(4-fluoro-7-(1H-1,2,3-triazol-1-yl)-1H-pyrrolo[2,3-c]pyridin-3-yl)-2-(7-(1-phenyl-1H-tetrazol-5-yl)-2,7-diazaspiro[4.4]nonan-2-yl)ethane-1,2-dione], the pEC50 (as a rule, the negative decadic logarithm of the EC50, by convention in mol/L) is 8.25. Moreover, the pEC50 under setting [1] is greater than 6.30.

Turning to `COc1cnc(-n2cnc(C)n2)c2[nH]cc(C(=O)C(=O)N3CCC4(CCN(c5nnnn5-c5ccccc5)C4)C3)c12` (centres unmarked) [Compound 1002, 1-(4-methoxy-7-(3-methyl-1H-1,2,4-triazol-1-yl)-1H-pyrrolo[2,3-c]pyridin-3-yl)-2-(7-(1-phenyl-1H-tetrazol-5-yl)-2,7-diazaspiro[4.4]nonan-2-yl)ethane-1,2-dione], the pEC50 under setting [1] was greater than 6.30.

For the compound `COc1cnc(-n2cnc(C)n2)c2[nH]cc(C(=O)C(=O)N3CCC4(CCN(Cc5ccccc5)C4)C3)c12` (centres unmarked) [Compound 2002], the negative-log EC50 (pEC50) under setting [1] was less than 6.30.

`O=C(C(=O)N1CCC2(CCN(C(=O)c3ccccc3)C2)C1)c1c[nH]c2c(-n3ccnn3)ncc(F)c12` (centres unmarked) [Compound 2003]: the pEC50 under setting [1] is less than 6.30.

For the compound `COc1cnc(-n2cnc(C)n2)c2[nH]cc(C(=O)C(=O)N3CCC4(CCN(C(=O)c5ccccc5)C4)C3)c12` (centres unmarked) [Compound 2004], the pEC50 under setting [1] was less than 6.30.

For the compound `COc1cnc(-n2cnc(C)n2)c2[nH]cc(C(=O)C(=O)N3CC4(C3)CN(c3nnnn3-c3ccccc3)C4)c12` [Compound 4001, 1-(4-methoxy-7-(3-methyl-1H-1,2,4-triazol-1-yl)-1H-pyrrolo[2,3-c]pyridin-3-yl)-2-(6-(1-phenyl-1H-tetrazol-5-yl)-2,6-diazaspiro[3.3]heptan-2-yl)ethane-1,2-dione], the pEC50 was 6.66. Further, under setting [1], the pEC50 was greater than 6.30.

The record behind these values is patent US8664213B2, “Spiro bicyclic diamine derivatives as HIV attachment inhibitors” (priority 2011, dated 2014).
